Test results reported in ChEMBL document CHEMBL3046473, “Effect on Insecticidal Activity of Substituents at the 1,4-Benzodioxanyl Moiety of Haedoxan” (1992).

Assays:
Musca domestica [1] = assay: Insecticidal activity against 3-day old Musca domestica (house fly) administered topically measured after 24 hr; format: functional
Musca domestica [2] = assay: Insecticidal activity against 3-day old Musca domestica (house fly) administered topically measured after 24 hr relative to (+)-haedoxan A; format: functional

SMILES	LD50 (Musca domestica [1]) [µg]	Ratio (Musca domestica [2])
COc1cc2c(cc1[C@H]1OC[C@]3(O)[C@@H](Oc4c(OC)cccc4OC)OC[C@H]13)OC(CCl)CO2 (mixture of isomers)	5	5e-05
COc1cc2c(cc1[C@H]1OC[C@]3(O)[C@@H](Oc4c(OC)cccc4OC)OC[C@H]13)OC(CO)CO2 (mixture of isomers)	>10	–
COc1cc2c(cc1[C@H]1OC[C@]3(O)[C@@H](Oc4c(OC)cccc4OC)OC[C@H]13)OCCO2	>10	–
COc1cc2c(cc1[C@H]1OC[C@]3(O)[C@@H](Oc4c(OC)cccc4OC)OC[C@H]13)OCC(c1ccc3c(c1)OCO3)O2 (mixture of isomers)	1	0.0003
COCC1COc2cc(OC)c([C@H]3OC[C@]4(O)[C@@H](Oc5c(OC)cccc5OC)OC[C@H]34)cc2O1 (mixture of isomers)	1	0.0003
COc1cc2c(cc1[C@H]1OC[C@]3(O)[C@@H](Oc4c(OC)cccc4OC)OC[C@H]13)OC(COCc1ccccc1)CO2 (mixture of isomers)	>10	–
COC[C@H]1Oc2cc([C@H]3OC[C@]4(O)[C@@H](Oc5c(OC)cc6c(c5OC)OCO6)OC[C@H]34)c(OC)cc2O[C@@H]1c1ccc2c(c1)OCO2 [(+)-HAEDOXAN A]	0.00025	–
COc1cc2c(cc1[C@H]1OC[C@]3(O)[C@@H](Oc4c(OC)cccc4OC)OC[C@H]13)OC(COC(C)(C)C)CO2 (mixture of isomers)	1	0.0003
